The target of this experiment is T1, FIEL1/PIAS4 interaction (Homo sapiens, UniProt O15033).
T1 construct: made in house; host or cells: 293T cells (FIEL1)
T1 sequence (O15033 1-789 isoform O15033-2): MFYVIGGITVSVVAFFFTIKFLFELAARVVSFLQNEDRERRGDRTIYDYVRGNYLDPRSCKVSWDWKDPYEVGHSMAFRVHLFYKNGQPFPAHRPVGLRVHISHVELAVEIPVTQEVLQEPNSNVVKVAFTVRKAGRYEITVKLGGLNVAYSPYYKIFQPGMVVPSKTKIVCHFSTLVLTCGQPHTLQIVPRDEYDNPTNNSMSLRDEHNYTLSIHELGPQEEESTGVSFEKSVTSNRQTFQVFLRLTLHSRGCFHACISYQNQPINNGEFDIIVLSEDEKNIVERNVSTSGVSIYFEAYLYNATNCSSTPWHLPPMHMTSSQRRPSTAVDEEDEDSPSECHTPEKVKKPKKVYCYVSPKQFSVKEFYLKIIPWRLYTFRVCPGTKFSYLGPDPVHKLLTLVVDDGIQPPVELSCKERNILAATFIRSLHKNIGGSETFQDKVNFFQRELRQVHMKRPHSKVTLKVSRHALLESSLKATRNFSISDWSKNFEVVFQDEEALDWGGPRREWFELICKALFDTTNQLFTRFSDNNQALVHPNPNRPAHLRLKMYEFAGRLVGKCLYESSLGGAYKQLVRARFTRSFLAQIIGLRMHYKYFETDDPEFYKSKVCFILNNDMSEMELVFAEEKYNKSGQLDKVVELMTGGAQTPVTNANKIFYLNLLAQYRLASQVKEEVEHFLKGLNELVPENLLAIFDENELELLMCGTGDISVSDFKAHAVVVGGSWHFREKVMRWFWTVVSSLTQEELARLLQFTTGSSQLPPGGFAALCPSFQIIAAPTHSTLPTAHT
Briefly: In vitro drug binding assay: PIAS4 pull-down on drug-bound FIEL1 beads. On the procedure:
FIG. 7A. […] FIG. 7B. Structures of the BC-1480 backbone and lead compound BC-1485. FIG. 7C. FIEL1 protein was HIS-purified from FIEL1 expression in 293T cells using cobalt beads. Beads were then extensively washed prior to exposure to BC-1480 or BC-1485 at different concentrations (10^−4 to 100 μM). Purified PIAS4 protein was then incubated with drug-bound FIEL1 beads overnight. Beads were washed, and proteins were eluted and resolved on SDS-PAGE. The relative amounts of PIAS4 detected in the pull-downs was normalized to loading and quantified (n=2). FIG. 7D. MLE cells were exposed to BC-1480 or BC-1485 at various concentrations for 18 h. Cells were then collected and immunoblotted. FIGS. 7E-J. C57BL/6J mice were administered with bleomycin (0.05 U) for 7-21 days. Compounds BC-1480 and BC-1485 were given to mice through drinking water with an estimated dose of 5 mg/kg/d. Mice were euthanized, and lungs were lavaged with saline, harvested, and then homogenized. Lavage proteins, CXCL1, and total cell count were measured in FIGS. 7E-G. H. Survival studies of mice that were given bleomycin and compound treatments. Mice were carefully monitored over time; moribund, preterminal animals were immediately euthanized and recorded as deceased. Kaplan-Meier survival curves were generated using SPSS software (p<0.01 compared to Vehicle). Vehicle: n=24, BC-1480: n=13, BC-1485: n=12. FIG. 7I. Hydroxyproline contents were measured in lungs from 7, 14, and 21d after bleomycin challenge. FIG. 7J. Trichrome staining was performed on lung samples from E. Original magnification, ×10. *p<0.05 compared to Vehicle (t-test). Data are an average of two experiments (FIGS. 7E-J, 4-8 mice/group)
FIEL1 protein was HIS-purified from FIEL1 expression 293T cells using cobalt beads. Beads were then extensively washed prior to exposure to BC-1480 or BC-1485 at different concentrations (10^−4 to 100 μM). Purified recombinant PIAS4 protein was then incubated with drug-bound FIEL1 beads overnight. […] The relative amounts of PIAS4 detected in the pull-downs were normalized to loading and quantified.

The values below come from US10968183B2, “Small molecule FIEL1 inhibitor in inflammatory and fibrotic lung injury” (UNIVERSITY OF PITTSBURGH—OF THE COMMONWEALTH SYSTEM OF …, priority 2015, dated 2021).

Consider `CC(NC(=O)c1ccc(NS(=O)(=O)c2ccc3[nH]c(=O)[nH]c3c2)cc1)C(=O)N(C)C` (centres unmarked) [BC-1485], for which the “activity in disrupting the FIEL1/PIAS4 interaction compared to BC-1480” value (10^−4 to 100 μM compound on FIEL1 beads, FIG. 7C) is greater than 100 fold. Besides, the “inhibition of FIEL1 and PIAS4 interaction” value (FIG. 7) was “inhibition of FIEL1 and PIAS4 interaction”.
